Measurements published in US12134610B2, “Somatostatin subtype-2 receptor (SST2R) targeted therapeutics and uses thereof” (priority 2022, dated 2024).
Read-outs that look alike come from different tables or passages of the source. Starred links: 1 amine or outer side, 2 acyl side, 3 side chain; linkers in the order of their positions; H or OH if unused. Non-standard residues stand in square brackets, D forms with d. Residues, ends and D or L forms follow the SMILES beside them. *: point of attachment. X1 = Cc1cc(F)cc(-c2cnc(NCCNC(=O)CCOCCC(=O)*)c(-c3nc4ccc(Cl)cc4[nH]3)c2N2CCC(N)CC2)c1; Dolaproine = CO[C@@H]([C@@H]1CCCN1)[C@@H](C)C(=O)O; Dil = CC[C@H](C)[C@H](NC)[C@@H](CC(=O)O)OC; PABC = O=C(OCc1ccc(N[*:1])cc1)[*:2]; X2 = C[C@@H](N*)[C@@H](O)c1ccccc1; Cya = N[C@@H](CS(=O)(=O)O)C(=O)O; Cit = NC(=O)NCCC[C@H](N)C(=O)O; NMeV = CN[C@H](C(=O)O)C(C)C

Legend:
Assay type in all cases: cell-based
[1] = molecular target: T1, human somatostatin receptor subtype 2 (Homo sapiens, UniProt P30874); assay: Functional cAMP assay for SSTR2 agonists (HTRF) in CHO-K1 cells; details: CHO-K1 cells stably expressing human SST2, 20 min
T1 construct: expressed in transfected cells
Method in brief: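 Agonism scored as loss of NKH477 (1.6 μM)-driven cAMP, with IBMX present, after 20 min, 37° C. exposure of stably transfected CHO-K1 cells to compound dilutions (typically 0-10,000 nM). Lysates read by time-resolved FRET; cAMP interpolated from standard curve and EC50 derived.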

[2] = tested on: NCI-H524 (ATCC) human small cell lung cancer cells
Method in brief: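 CellTiter-Glo luminescence after a 2 h SMDC pulse (top dose 1 uM, 2-fold dilutions, 11 points), medium wash, then 70 h recovery. Cells were seeded at 5,000/well and dosed 24 h later. % inhibition vs control gave IC50 via four-parameter fit.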

SST2 = molecular target: T2, SST2 (Homo sapiens, UniProt P30874); assay: PathHunter CHO-K1 SST2 internalization assay; details: PathHunter CHO-K1 SST2, 90 min
T2 construct: host or cells: PathHunter CHO-K1 SST2 cells
Method in brief: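 IC50 comes from four-parameter curves on background-corrected duplicates of Beta-Glo luminescence, read after 60 min at room temperature in the dark. Before that, CHO-K1 SST2 internalization cells (48 h post-seeding) received SMDC as eleven threefold dilutions, 10 uM highest final, for 90 min at 37 C.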

T2 sequence (P30874 whole entry): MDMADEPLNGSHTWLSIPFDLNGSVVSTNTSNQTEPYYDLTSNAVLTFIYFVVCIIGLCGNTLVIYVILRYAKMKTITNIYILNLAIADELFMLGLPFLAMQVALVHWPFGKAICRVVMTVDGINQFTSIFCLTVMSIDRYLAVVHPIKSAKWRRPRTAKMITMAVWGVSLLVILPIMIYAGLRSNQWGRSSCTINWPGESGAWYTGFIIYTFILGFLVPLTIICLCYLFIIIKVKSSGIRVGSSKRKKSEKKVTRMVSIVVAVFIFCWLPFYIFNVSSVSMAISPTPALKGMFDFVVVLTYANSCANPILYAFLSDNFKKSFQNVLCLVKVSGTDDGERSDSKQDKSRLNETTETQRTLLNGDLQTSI
T1 sequence (P30874 whole entry): as above

Row | SMILES | EC50 ([1]; read-out: hSST2 cAMP Avg EC50) | EC50 ([2]; 2 h) | EC50 (SST2; read-out: Internalization EC50) | EC50 ([1]; hSST2 cAMP Avg EC50 (nM)) | EC50 ([2]; 2 h treatment, washout, additional 70 h, read-out: H524 EC50) | EC50 (SST2; Internalization EC50 (nM))
1 | CC[C@H](C)[C@@H]([C@@H](CC(=O)N1CCC[C@H]1[C@H](OC)[C@@H](C)C(=O)N[C@H](C)[C@@H](O)c1ccccc1)OC)N(C)C(=O)[C@@H](NC(=O)[C@H](C(C)C)N(C)C(=O)OCc1ccc(NC(=O)[C@H](CCCNC(N)=O)NC(=O)[C@@H](NC(=O)[C@H](CCC(N)=O)NC(=O)CCOCCC(=O)NCCNc2ncc(-c3cc(C)cc(F)c3)c(N3CCC(N)CC3)c2-c2nc3ccc(Cl)cc3[nH]2)C(C)C)cc1C(=O)NCCN)C(C)C [Compound 57] | 0.38 nM | 15 nM | 5.7 nM | – | – | –
2 | CC[C@H](C)[C@@H]([C@@H](CC(=O)N1CCC[C@H]1[C@H](OC)[C@@H](C)C(=O)N[C@H](C)[C@@H](O)c1ccccc1)OC)N(C)C(=O)[C@@H](NC(=O)[C@H](C(C)C)N(C)C(=O)OCc1ccc(NC(=O)[C@H](CCCNC(N)=O)NC(=O)[C@@H](NC(=O)[C@H](CS(=O)(=O)O)NC(=O)CCOCCOCCOCCOCCC(=O)NCCNc2ncc(-c3cc(C)cc(F)c3)c(N3CCC(N)CC3)c2-c2nc3ccc(Cl)cc3[nH]2)C(C)C)cc1)C(C)C [Compound 45] | 0.12 nM | 32 nM | 21 nM | – | – | –
3 | CC[C@H](C)[C@@H]([C@@H](CC(=O)N1CCC[C@H]1[C@H](OC)[C@@H](C)C(=O)N[C@H](C)[C@@H](O)c1ccccc1)OC)N(C)C(=O)[C@@H](NC(=O)[C@H](C(C)C)N(C)C(=O)OCc1ccc(NC(=O)[C@H](CCCNC(N)=O)NC(=O)[C@@H](NC(=O)[C@H](CCC(=O)O)NC(=O)[C@H](CS(=O)(=O)O)NC(=O)CCOCCC(=O)NCCNc2ncc(-c3cc(C)cc(F)c3)c(N3CCC(N)CC3)c2-c2nc3ccc(Cl)cc3[nH]2)C(C)C)cc1)C(C)C [Compound 113] (X1-[Cya]EV[Cit][PABC][NMeV]V[Dil][Dolaproine]-X2) | 0.33 nM | 200 nM | 30 nM | – | – | –
4 | CC[C@H](C)[C@@H]([C@@H](CC(=O)N1CCC[C@H]1[C@H](OC)[C@@H](C)C(=O)N[C@H](C)[C@@H](O)c1ccccc1)OC)N(C)C(=O)[C@@H](NC(=O)[C@H](C(C)C)N(C)C(=O)OCc1ccc(NC(=O)[C@H](CCCNC(N)=O)NC(=O)[C@@H](NC(=O)[C@H](CCC(=O)O)NC(=O)CCOCCOCCOCCOCCC(=O)NCCNc2ncc(-c3cc(C)cc(F)c3)c(N3CCC(N)CC3)c2-c2nc3ccc(Cl)cc3[nH]2)C(C)C)c(O[C@@H]2O[C@H](C(=O)O)[C@@H](O)[C@H](O)[C@H]2O)c1)C(C)C [Compound 144] | 0.21 nM | 120 nM | 6.9 nM | – | – | –
5 | CC[C@@]1(O)C(=O)OCc2c1cc1n(c2=O)Cc2c-1nc1cc(F)c(C)c3c1c2[C@@H](NC(=O)OCc1ccc(NC(=O)[C@H](CCCNC(N)=O)NC(=O)[C@@H](NC(=O)CCOCCC(=O)NCCNc2ncc(-c4cc(C)cc(F)c4)c(N4CCC(N)CC4)c2-c2nc4ccc(Cl)cc4[nH]2)C(C)C)c(O[C@@H]2O[C@H](C(=O)O)[C@@H](O)[C@H](O)[C@H]2O)c1)CC3 [Compound 126] | – | – | – | 0.29 nM | 100 nM | 3.4 nM
6 | CC[C@H](C)[C@@H]([C@@H](CC(=O)N1CCC[C@H]1[C@H](OC)[C@@H](C)C(=O)N[C@H](C)[C@@H](O)c1ccccc1)OC)N(C)C(=O)[C@@H](NC(=O)[C@H](C(C)C)N(C)C(=O)OCc1ccc(NC(=O)[C@H](CCCNC(N)=O)NC(=O)[C@@H](NC(=O)CCCC(=O)N(C)CC(=O)N(C)CC(=O)N(C)CC(=O)NCCNc2ncc(-c3cc(C)cc(F)c3)c(N3CCC(N)CC3)c2-c2nc3ccc(Cl)cc3[nH]2)C(C)C)c(O[C@@H]2O[C@H](C(=O)O)[C@@H](O)[C@H](O)[C@H]2O)c1)C(C)C [Compound 142] | 0.25 nM | 91 nM | 4.4 nM | – | – | –
7 | CC[C@H](C)[C@@H]([C@@H](CC(=O)N1CCC[C@H]1[C@H](OC)[C@@H](C)C(=O)N[C@H](C)[C@@H](O)c1ccccc1)OC)N(C)C(=O)[C@@H](NC(=O)[C@H](C(C)C)N(C)C(=O)OCc1ccc(NC(=O)[C@H](CCCNC(N)=O)NC(=O)[C@@H](NC(=O)[C@H](CCC(=O)O)NC(=O)CCOCCC(=O)NCCNc2ncc(-c3cc(C)cc(F)c3)c(N3CCC(N)CC3)c2-c2nc3ccc(Cl)cc3[nH]2)C(C)C)c(O[C@@H]2O[C@H](C(=O)O)[C@@H](O)[C@H](O)[C@H]2O)c1)C(C)C [Compound 143] | 0.14 nM | 100 nM | 3 nM | – | – | –
8 | COc1cc2cc(c1Cl)N(C)C(=O)CC(OC(=O)[C@@H](C)N(C)C(=O)CCS[C@H]1CC(=O)N(CC3CCC(C(=O)NCCCC[C@H](N)C(=O)NCCNc4ncc(-c5cc(C)cc(F)c5)c(N5CCC(N)CC5)c4-c4nc5ccc(Cl)cc5[nH]4)CC3)C1=O)[C@]1(C)OC1[C@@H](C)C1C[C@@](O)(NC(=O)O1)[C@H](OC)/C=C/C=C(\C)C2 (stereo partly drawn) [Compound 7] | 0.15 nM | 355 nM | 21 nM | – | – | –
